Assay results reported in PubChem BioAssay (NCI).
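Cultured in 96-well plates, cells were exposed to test compound for 48 hours across five concentrations. The concentration for full growth arrest is given as TGI.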

The molecules below were run on HOP-18 NSCLC (assay: NCI tumour cell line growth inhibition, 48 h).
`CC(C)=CCCC(C)[C@H]1CC(O)C2(C)C3=CCC4C(C)(C)[C@@H](O)CC[C@]4(C)C3=CC[C@]12C` (stereo partly specified) was tested, and the TGI was 31.6 µM.
For `COc1ccc(C(c2ccc(C(C)C)cc(OC)c2=O)c2ccc(C(C)C)cc(OC)c2=O)cc1`, the TGI was 40.1 µM.

These molecules were tested on OVCAR-3 ovarian (assay: NCI tumour cell line growth inhibition, 48 h).
Work on `CCOC(=O)C1C(c2ccccc2)=C(c2ccccc2)C(c2ccccc2)=C1c1ccccc1` yielded a TGI of 68.7 µM.
With `Cc1c(NC(=O)/C(=N/NC(=S)N=N)C2C(=O)CC(C)(C)CC2=O)c(O)c2ccccc2c1O` the TGI was 6.5 µM.
`COC(=O)CCC1=NOC(CC2CC(CCC(=O)OC)=NO2)C1` (stereo unspecified) gave a TGI of over 100 µM.
Work on `CC(C)=CCCC(C)[C@H]1CC(O)C2(C)C3=CCC4C(C)(C)[C@@H](O)CC[C@]4(C)C3=CC[C@]12C` (stereo partly specified) yielded a TGI of 13.1 µM.
`COc1ccc(C(c2ccc(C(C)C)cc(OC)c2=O)c2ccc(C(C)C)cc(OC)c2=O)cc1` gave a TGI of 26 µM.

What follows are molecules tested on HOP-62 NSCLC (assay: NCI tumour cell line growth inhibition, 48 h).
Work on `CCOC(=O)C1C(c2ccccc2)=C(c2ccccc2)C(c2ccccc2)=C1c1ccccc1` yielded a TGI of 33.3 µM.
`Cc1c(NC(=O)/C(=N/NC(=S)N=N)C2C(=O)CC(C)(C)CC2=O)c(O)c2ccccc2c1O` gave a TGI of 36 µM.
In the case of `COC(=O)CCC1=NOC(CC2CC(CCC(=O)OC)=NO2)C1` (stereo unspecified), the TGI is reported as over 100 µM.
Molecule `CC(C)=CCCC(C)[C@H]1CC(O)C2(C)C3=CCC4C(C)(C)[C@@H](O)CC[C@]4(C)C3=CC[C@]12C` (stereo partly specified) has a TGI of 18.9 µM.
`COc1ccc(C(c2ccc(C(C)C)cc(OC)c2=O)c2ccc(C(C)C)cc(OC)c2=O)cc1` gave a TGI of 35.5 µM.

What follows are molecules tested on HCT-15 colon (assay: NCI tumour cell line growth inhibition, 48 h).
Work on `CCOC(=O)C1C(c2ccccc2)=C(c2ccccc2)C(c2ccccc2)=C1c1ccccc1` yielded a TGI of over 100 µM.
With `Cc1c(NC(=O)/C(=N/NC(=S)N=N)C2C(=O)CC(C)(C)CC2=O)c(O)c2ccccc2c1O` the TGI was 18.8 µM.
In the case of `COC(=O)CCC1=NOC(CC2CC(CCC(=O)OC)=NO2)C1` (stereo unspecified), the TGI is reported as over 100 µM.
`CC(C)=CCCC(C)[C@H]1CC(O)C2(C)C3=CCC4C(C)(C)[C@@H](O)CC[C@]4(C)C3=CC[C@]12C` (stereo partly specified) showed a TGI of 45.7 µM.
With `COc1ccc(C(c2ccc(C(C)C)cc(OC)c2=O)c2ccc(C(C)C)cc(OC)c2=O)cc1` the TGI was 25.3 µM.

Each molecule was assayed on SK-MEL-5 melanoma (assay: NCI tumour cell line growth inhibition, 48 h).
With `CCOC(=O)C1C(c2ccccc2)=C(c2ccccc2)C(c2ccccc2)=C1c1ccccc1` the TGI was over 100 µM.
`Cc1c(NC(=O)/C(=N/NC(=S)N=N)C2C(=O)CC(C)(C)CC2=O)c(O)c2ccccc2c1O` showed a TGI of 11.3 µM.
With `COC(=O)CCC1=NOC(CC2CC(CCC(=O)OC)=NO2)C1` (stereo unspecified) the TGI was over 100 µM.
Work on `CC(C)=CCCC(C)[C@H]1CC(O)C2(C)C3=CCC4C(C)(C)[C@@H](O)CC[C@]4(C)C3=CC[C@]12C` (stereo partly specified) yielded a TGI of over 100 µM.
`COc1ccc(C(c2ccc(C(C)C)cc(OC)c2=O)c2ccc(C(C)C)cc(OC)c2=O)cc1` showed a TGI of 27.4 µM.

What follows are molecules tested on SNB-78 CNS (assay: NCI tumour cell line growth inhibition, 48 h).
In the case of `CCOC(=O)C1C(c2ccccc2)=C(c2ccccc2)C(c2ccccc2)=C1c1ccccc1`, the TGI is reported as over 91.6 µM.
Work on `Cc1c(NC(=O)/C(=N/NC(=S)N=N)C2C(=O)CC(C)(C)CC2=O)c(O)c2ccccc2c1O` yielded a TGI of 58.8 µM.
With `COC(=O)CCC1=NOC(CC2CC(CCC(=O)OC)=NO2)C1` (stereo unspecified) the TGI was over 100 µM.
`CC(C)=CCCC(C)[C@H]1CC(O)C2(C)C3=CCC4C(C)(C)[C@@H](O)CC[C@]4(C)C3=CC[C@]12C` (stereo partly specified) showed a TGI of 32.4 µM.
`COc1ccc(C(c2ccc(C(C)C)cc(OC)c2=O)c2ccc(C(C)C)cc(OC)c2=O)cc1` showed a TGI of 27.3 µM.

The molecules below were run on EKVX NSCLC (assay: NCI tumour cell line growth inhibition, 48 h).
`CCOC(=O)C1C(c2ccccc2)=C(c2ccccc2)C(c2ccccc2)=C1c1ccccc1` showed a TGI of over 100 µM.
`Cc1c(NC(=O)/C(=N/NC(=S)N=N)C2C(=O)CC(C)(C)CC2=O)c(O)c2ccccc2c1O` was tested, and the TGI was 32.2 µM.
In the case of `COC(=O)CCC1=NOC(CC2CC(CCC(=O)OC)=NO2)C1` (stereo unspecified), the TGI is reported as over 100 µM.
For `CC(C)=CCCC(C)[C@H]1CC(O)C2(C)C3=CCC4C(C)(C)[C@@H](O)CC[C@]4(C)C3=CC[C@]12C` (stereo partly specified), the TGI was over 100 µM.
For `COc1ccc(C(c2ccc(C(C)C)cc(OC)c2=O)c2ccc(C(C)C)cc(OC)c2=O)cc1`, the TGI was 26.6 µM.

What follows are molecules tested on SR leukemia (assay: NCI tumour cell line growth inhibition, 48 h).
In the case of `CCOC(=O)C1C(c2ccccc2)=C(c2ccccc2)C(c2ccccc2)=C1c1ccccc1`, the TGI is reported as over 100 µM.
In the case of `Cc1c(NC(=O)/C(=N/NC(=S)N=N)C2C(=O)CC(C)(C)CC2=O)c(O)c2ccccc2c1O`, the TGI is reported as 14.9 µM.
For `CC(C)=CCCC(C)[C@H]1CC(O)C2(C)C3=CCC4C(C)(C)[C@@H](O)CC[C@]4(C)C3=CC[C@]12C` (stereo partly specified), the TGI was 44.2 µM.
With `COc1ccc(C(c2ccc(C(C)C)cc(OC)c2=O)c2ccc(C(C)C)cc(OC)c2=O)cc1` the TGI was 38.2 µM.

These molecules were tested on DLD-1 colon (assay: NCI tumour cell line growth inhibition, 48 h).
For `CCOC(=O)C1C(c2ccccc2)=C(c2ccccc2)C(c2ccccc2)=C1c1ccccc1`, the TGI was over 100 µM.
In the case of `Cc1c(NC(=O)/C(=N/NC(=S)N=N)C2C(=O)CC(C)(C)CC2=O)c(O)c2ccccc2c1O`, the TGI is reported as 20.7 µM.
`COC(=O)CCC1=NOC(CC2CC(CCC(=O)OC)=NO2)C1` (stereo unspecified) was tested, and the TGI was over 100 µM.
`CC(C)=CCCC(C)[C@H]1CC(O)C2(C)C3=CCC4C(C)(C)[C@@H](O)CC[C@]4(C)C3=CC[C@]12C` (stereo partly specified) gave a TGI of 27.1 µM.
`COc1ccc(C(c2ccc(C(C)C)cc(OC)c2=O)c2ccc(C(C)C)cc(OC)c2=O)cc1` gave a TGI of 19.6 µM.

Each molecule was assayed on DMS 273 small cell lung (assay: NCI tumour cell line growth inhibition, 48 h).
Work on `CCOC(=O)C1C(c2ccccc2)=C(c2ccccc2)C(c2ccccc2)=C1c1ccccc1` yielded a TGI of over 100 µM.
In the case of `Cc1c(NC(=O)/C(=N/NC(=S)N=N)C2C(=O)CC(C)(C)CC2=O)c(O)c2ccccc2c1O`, the TGI is reported as 22.4 µM.
Molecule `COC(=O)CCC1=NOC(CC2CC(CCC(=O)OC)=NO2)C1` (stereo unspecified) has a TGI of over 100 µM.
`CC(C)=CCCC(C)[C@H]1CC(O)C2(C)C3=CCC4C(C)(C)[C@@H](O)CC[C@]4(C)C3=CC[C@]12C` (stereo partly specified) was tested, and the TGI was 3.74 µM.
With `COc1ccc(C(c2ccc(C(C)C)cc(OC)c2=O)c2ccc(C(C)C)cc(OC)c2=O)cc1` the TGI was 28 µM.

What follows are molecules tested on RXF 393 renal (assay: NCI tumour cell line growth inhibition, 48 h).
Work on `CCOC(=O)C1C(c2ccccc2)=C(c2ccccc2)C(c2ccccc2)=C1c1ccccc1` yielded a TGI of 40.4 µM.
Work on `Cc1c(NC(=O)/C(=N/NC(=S)N=N)C2C(=O)CC(C)(C)CC2=O)c(O)c2ccccc2c1O` yielded a TGI of 33.2 µM.
For `COC(=O)CCC1=NOC(CC2CC(CCC(=O)OC)=NO2)C1` (stereo unspecified), the TGI was over 100 µM.
`CC(C)=CCCC(C)[C@H]1CC(O)C2(C)C3=CCC4C(C)(C)[C@@H](O)CC[C@]4(C)C3=CC[C@]12C` (stereo partly specified) was tested, and the TGI was 7.59 µM.
`COc1ccc(C(c2ccc(C(C)C)cc(OC)c2=O)c2ccc(C(C)C)cc(OC)c2=O)cc1` showed a TGI of 15 µM.

The molecules below were run on NCI-H522 lung (assay: NCI tumour cell line growth inhibition, 48 h).
Work on `CCOC(=O)C1C(c2ccccc2)=C(c2ccccc2)C(c2ccccc2)=C1c1ccccc1` yielded a TGI of 98.1 µM.
In the case of `Cc1c(NC(=O)/C(=N/NC(=S)N=N)C2C(=O)CC(C)(C)CC2=O)c(O)c2ccccc2c1O`, the TGI is reported as 8.39 µM.
`COC(=O)CCC1=NOC(CC2CC(CCC(=O)OC)=NO2)C1` (stereo unspecified) gave a TGI of over 100 µM.
Molecule `CC(C)=CCCC(C)[C@H]1CC(O)C2(C)C3=CCC4C(C)(C)[C@@H](O)CC[C@]4(C)C3=CC[C@]12C` (stereo partly specified) has a TGI of 16.2 µM.
In the case of `COc1ccc(C(c2ccc(C(C)C)cc(OC)c2=O)c2ccc(C(C)C)cc(OC)c2=O)cc1`, the TGI is reported as 27.8 µM.

Each molecule was assayed on RPMI-8226 leukemia (assay: NCI tumour cell line growth inhibition, 48 h).
With `CCOC(=O)C1C(c2ccccc2)=C(c2ccccc2)C(c2ccccc2)=C1c1ccccc1` the TGI was over 100 µM.
Work on `Cc1c(NC(=O)/C(=N/NC(=S)N=N)C2C(=O)CC(C)(C)CC2=O)c(O)c2ccccc2c1O` yielded a TGI of 56.7 µM.
`COC(=O)CCC1=NOC(CC2CC(CCC(=O)OC)=NO2)C1` (stereo unspecified) gave a TGI of over 100 µM.
`CC(C)=CCCC(C)[C@H]1CC(O)C2(C)C3=CCC4C(C)(C)[C@@H](O)CC[C@]4(C)C3=CC[C@]12C` (stereo partly specified) gave a TGI of 34.4 µM.
In the case of `COc1ccc(C(c2ccc(C(C)C)cc(OC)c2=O)c2ccc(C(C)C)cc(OC)c2=O)cc1`, the TGI is reported as 25.6 µM.

These molecules were tested on A498 renal (assay: NCI tumour cell line growth inhibition, 48 h).
For `CCOC(=O)C1C(c2ccccc2)=C(c2ccccc2)C(c2ccccc2)=C1c1ccccc1`, the TGI was 57.1 µM.
With `Cc1c(NC(=O)/C(=N/NC(=S)N=N)C2C(=O)CC(C)(C)CC2=O)c(O)c2ccccc2c1O` the TGI was 35.7 µM.
`COC(=O)CCC1=NOC(CC2CC(CCC(=O)OC)=NO2)C1` (stereo unspecified) gave a TGI of over 100 µM.
`CC(C)=CCCC(C)[C@H]1CC(O)C2(C)C3=CCC4C(C)(C)[C@@H](O)CC[C@]4(C)C3=CC[C@]12C` (stereo partly specified) gave a TGI of 16.3 µM.
For `COc1ccc(C(c2ccc(C(C)C)cc(OC)c2=O)c2ccc(C(C)C)cc(OC)c2=O)cc1`, the TGI was 31.7 µM.

The molecules below were run on XF 498 CNS (assay: NCI tumour cell line growth inhibition, 48 h).
In the case of `CCOC(=O)C1C(c2ccccc2)=C(c2ccccc2)C(c2ccccc2)=C1c1ccccc1`, the TGI is reported as over 56.8 µM.
With `Cc1c(NC(=O)/C(=N/NC(=S)N=N)C2C(=O)CC(C)(C)CC2=O)c(O)c2ccccc2c1O` the TGI was 28.9 µM.
In the case of `COC(=O)CCC1=NOC(CC2CC(CCC(=O)OC)=NO2)C1` (stereo unspecified), the TGI is reported as over 100 µM.
For `CC(C)=CCCC(C)[C@H]1CC(O)C2(C)C3=CCC4C(C)(C)[C@@H](O)CC[C@]4(C)C3=CC[C@]12C` (stereo partly specified), the TGI was 25.1 µM.
With `COc1ccc(C(c2ccc(C(C)C)cc(OC)c2=O)c2ccc(C(C)C)cc(OC)c2=O)cc1` the TGI was 34.7 µM.
